Source: patent US12403132B2, “Methods of treating bone marrow failure syndromes and compositions for use in the same” (The Board of Trustees of the Leland Stanford Junior …, priority 2020, dated 2025)
Where “and” joins values, the source holds several entries; their conditions need not be identical. Equal values may be shown once. Read-outs that look alike come from different tables or passages of the source.

What was measured:
[1] = tested on: c-Kit+ erythroid progenitors in murine RPS19-insufficiency; test: c-Kit+ erythroid expansion screen, tet-shRPS19 murine fetal liver cells (Cell titer-Glo); format: cell-based, mouse; conditions: for rescue of c-Kit+ erythroid expansion: 10 μM, murine RPS19-insufficient model; for EC50: read-out: EC50 of rescue of erythroid growth in murine RPS19-insufficiency
Ter119+ erythroblasts = test: Ter119+ erythroblast expansion from murine Lin-Kit+ HSPCs (tet-shRPS19, RPL11+/lox); format: cell-based, mouse
Experimental: FIG. 8. NLK inhibition increases expansion of erythroid progenitors from human and murine models of DBA. Human cord blood CD34+ progenitors were transduced with lentivirus co-expressing GFP with shRNA against luciferase (shLuc), RPS19 (shRPS19) or RPL11 (shRPL11). After 36 hours cells GFP+ cells were differentiated in erythroid media in the presence or absence of 5 μM SD208 for 15 days. Cells were counted and assessed for cell surface expression of CD235. (a) The percentage of CD235+ cells was multiplied by the cell count and values were compared as a percentage of untreated controls. (b) Normalizing values relative to untreated RPS19-insufficiency progenitors facilitates direct comparison of erythropoiesis between untreated and SD208-treated cultures. (c) Approximately 3000 cells were removed from differentiating treatments at day 6 and NLK activity was assessed. Values were normalized to reflect a fold induction relative to untreated controls. (d) Lin-Kit+ hematopoietic progenitors were obtained from three mouse embryos expressing tetracycline-inducible shRNA against RPS19 at day E14.5 or three untreated mice, and thee mature RPL11^+/+ or three mature RPL11^+/lox mice treated with tamoxifen for eight weeks. Cells were grown in the presence or absence of doxycycline and/or SD208 for eight days prior to counting and assessing for ter119 surface expression. Values were expressed as a percentage relative to untreated controls (e) and directly comparing the effect of SD208 on erythropoiesis in ribosomal-insufficiency by expressing values relative to untreated ribosome-insufficient cultures (f). At day 5 approximately 3000 cells were assayed for NLK kinase assay (g). CD34+ HSPCs were isolated from three healthy control and three DBA patient mononuclear bone marrow aspirates by magnetic bead sorting and differentiated in the presence or absence of SD208 for 14 days. After counting the total cell population, the ratio of CD235+ erythroblasts was determined by flow cytometry and number of CD235+ erythroblasts calculated. This was expressed as a percentage of the average number of erythroid cells present in untreated healthy controls. (h) The direct effect of SD208 on erythroid expansion in DBA patient samples was calculated following normalization of untreated DBA patient samples as 1-fold, (i) At day five, 3000 cells from each of the differentiating cultures was analyzed for NLK activity by kinase assay and are expressed as a fold induction relative to untreated healthy controls.
FIG. 11. Metformin improves erythropoiesis in zebrafish model of DBA but not murine models. (Panel A, left portion) Murine fetal liver Kit+ progenitors expressing tetracycline-regulatable shRNA against RPS19 were cultured in the absence (grey columns) or presence (black columns) of doxycycline either alone, or treated with metformin. After 8 days, the number of ter119+ erythroblasts were calculated. (A right) RPL11+/lox mice were left untreated (grey columns) or treated (black columns) with tamoxifen for 5 weeks prior to isolation of bone marrow Lin-Kit+ progenitors. Progenitors were differentiated in the presence or absence of metformin for 8 days before assessing the number of Ter119+ erythroblasts. (Panel B) In conjunction with flow cytometry, cultures were subjected to qRT-PCR for NLK expression and (Panel C) kinase NLK kinase activity was assessed by in vitro kinase assay. […]

NLK = NLK expression in differentiating human progenitors (qRT-PCR, Western blot); format: cell-based; parameters: reduction of endogenous NLK expression: concentration or dose not given beside the values
[2] = ginsenoside Rb1, metformin, alone and combined

NC(=O)c1ccc(-c2nc(-c3ccc4c(c3)OCO4)c(-c3ccccn3)[nH]2)cc1 [SB431542]
rescue of c-Kit+ erythroid expansion [1]: significantly rescued
EC50 ([1]; Mus musculus): 5000 nM

Fc1ccc(Cl)cc1-c1nc(Nc2ccncc2)c2nccnc2n1 [SD208]
rescue of c-Kit+ erythroid expansion [1]: significantly rescued
EC50 [1]: 700 nM
erythropoiesis, % of controls (Ter119+ erythroblasts; RPL11+/lox bone marrow HSPCs of three mice, SD208, 8 days, 31.2, 26.4, 18.6% without SD208): 57.3% and 56.8% and 50.3%
fold increase of erythropoiesis in response to SD208 (Ter119+ erythroblasts; murine RPL11-insufficiency): 2.29 fold
fold increase of erythropoiesis in response to SD208 (Ter119+ erythroblasts; murine RPS19-insufficiency): 3.88 fold
Ter119+ erythroblasts, % of populations differentiated without doxycycline (Ter119+ erythroblasts; tet-shRPS19 fetal liver HSPCs of three mice, doxycycline + SD208, 8 days, 24.3, 20.3, 18.5% without SD208): 83.2% and 81.1% and 76.6%

CC(C)=CCC[C@](C)(O[C@@H]1O[C@H](CO[C@@H]2O[C@H](CO)[C@@H](O)[C@H](O)[C@H]2O)[C@@H](O)[C@H](O)[C@H]1O)[C@H]1CC[C@]2(C)[C@@H]1[C@H](O)C[C@@H]1[C@@]3(C)CC[C@H](O[C@@H]4O[C@H](CO)[C@@H](O)[C@H](O)[C@H]4O[C@@H]4O[C@H](CO)[C@@H](O)[C@H](O)[C@H]4O)C(C)(C)[C@@H]3CC[C@]12C [ginsenoside Rb1]
reduction of NLK protein (NLK; differentiating HSPCs, 5 mM): 31.5%
suppression of NLK expression (NLK; [2]): 34.6%
reduction of endogenous NLK expression (NLK; ginsenoside Rb1-treated differentiating HSPCs (miRNA sponge experiment)): 44.8%
suppression of NLK expression (NLK; miRNA species transduced into differentiating HSPCs, ginsenoside Rb1 for comparison): 34.6%

CN(C)C(=N)N=C(N)N [metformin]
suppression of NLK expression (NLK; [2]): 59.4%
rescue of Ter119+ erythroblast expansion (Ter119+ erythroblasts; murine RPS19- or RPL11-insufficiency, metformin, 8 days): did not rescue
